Test results from patent US20210116454A1, “METHODS FOR TREATING A HEMATOLOGICAL CANCER AND THE USE OF COMPANION BIOMARKERS FOR 2-(2,6-DIOXOPIPERIDIN-3-YL)-4-((2-FLUORO-4-((3-MORPHOLINOAZETIDIN-1-YL)METHYL)BENZYL)AMINO)ISOINDOLINE-1,3-DIONE” (CELGENE CORPORATION, priority 2019, published 2021).
Where two headings read alike, the source gives them in different places.

What was measured:
Assay type in all cases: cell-based
11 DLBCL cell lines = assay: Integrated proteomics (TMT-MS) and RNA-Seq profiling; conditions: 0.04 μM; 12, 24 and 48 hours
Description: Biomarkers associated with the cytotoxic effects of Compound 1 treatment in DLBCL, such as signaling and regulatory pathways, were determined by integrative network analysis using transcriptomic and proteomic profiling. The approach consisted of a network flow optimization using a knowledge driven backbone network with protein interactions and regulatory associations similar to what was described previously (Basha, Mauer, Simonovsky, Shpringer, & Yeger-Lotem, 2019; Gosline, Spencer, Ursu, & Fraenkel, 2012).
Briefly, differential expression analysis and differential protein abundance analysis at different timepoints were integrated using a model framework. […]
To begin, cell line sensitivity to Compound 1 was determined by flow cytometry for 40 cell line models using DRAQ7 and Annexin V staining to quantify the reduction in proliferation and induction of apoptosis after five days of compound treatment. […] Sensitivity was calculated by calculating the ratio of (AUCapoptosis/AUClive cells), where smaller ratios indicated resistance, and larger ratios indicated sensitivity. […]

Karpas-422 cells = assay: Western blot of substrates and downstream proteins
Description: (§1) To confirm that the rapid degradation of substrates and induction of apoptosis by Compound 1 is not unique to SU-DHL2 cells, TMD8 (ABC cell line) and Karpas-422 (GCB-cell line) cells were treated with vehicle control (DMSO) or Compound 1 at the times and concentrations indicated (FIG. 6).
(§2) In a second experiment, we confirmed that Compound 1 (100 nM) treatment of TMD8 produced a large reduction of Aiolos, Ikaros, and ZFP91 at the 24-hour timepoint. […] In Karpas-422 cells, Compound 1 also produced a reduction of Aiolos, Ikaros, and ZFP91 at the 24-hour timepoint (FIG. 6, panel D). At the 48-hour timepoint, Compound 1 increased the abundance of the proliferation inhibitor p21 and the interferon-stimulated genes IRF7, IFIT3, and DDX58, and reduced the expression of MYC (FIG. 6, panel D).

TMD8 cells = assay: Western blot of substrates and downstream proteins
Description: as §1, §2

Aiolos = molecular target: T1, Aiolos (Homo sapiens, UniProt Q96SW2+Q9UKT9); assay: ePL-tagged substrate degradation kinetics in DF15 cells (enantiomer comparison); parameters: Aiolos Y-constant: scale not given here; conditions: for DC50: read-out: Aiolos EC50
T1 construct: expressed in transfected cells; host or cells: DF15 cells
T1 sequence (Q9UKT9 whole entry): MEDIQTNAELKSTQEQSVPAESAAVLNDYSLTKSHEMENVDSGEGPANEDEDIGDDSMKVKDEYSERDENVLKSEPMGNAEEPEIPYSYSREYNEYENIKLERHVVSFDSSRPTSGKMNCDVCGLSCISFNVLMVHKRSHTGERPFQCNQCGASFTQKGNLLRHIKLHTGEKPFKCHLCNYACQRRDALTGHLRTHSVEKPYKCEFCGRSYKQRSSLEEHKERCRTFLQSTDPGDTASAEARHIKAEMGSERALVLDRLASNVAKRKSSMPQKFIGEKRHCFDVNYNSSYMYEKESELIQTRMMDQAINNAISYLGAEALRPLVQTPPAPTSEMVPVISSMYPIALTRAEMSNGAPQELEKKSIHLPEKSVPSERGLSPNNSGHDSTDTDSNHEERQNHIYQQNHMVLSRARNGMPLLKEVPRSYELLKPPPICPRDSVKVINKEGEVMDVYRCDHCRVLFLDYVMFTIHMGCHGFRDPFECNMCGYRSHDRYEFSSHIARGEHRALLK
T1 sequence (Q96SW2 whole entry): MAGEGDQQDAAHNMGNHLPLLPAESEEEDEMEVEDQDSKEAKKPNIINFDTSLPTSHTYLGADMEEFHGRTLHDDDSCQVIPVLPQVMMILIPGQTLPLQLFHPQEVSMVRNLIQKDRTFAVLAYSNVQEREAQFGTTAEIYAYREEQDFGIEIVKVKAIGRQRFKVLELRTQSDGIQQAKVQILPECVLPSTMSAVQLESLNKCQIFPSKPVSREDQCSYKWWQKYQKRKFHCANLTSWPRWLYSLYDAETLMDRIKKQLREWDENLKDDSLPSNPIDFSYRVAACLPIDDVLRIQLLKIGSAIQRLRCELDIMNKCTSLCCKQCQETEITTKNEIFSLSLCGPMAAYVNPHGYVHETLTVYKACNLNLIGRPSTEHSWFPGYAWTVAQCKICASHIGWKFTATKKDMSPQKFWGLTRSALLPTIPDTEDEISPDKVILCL
T1 sequence (Q16531 whole entry partner): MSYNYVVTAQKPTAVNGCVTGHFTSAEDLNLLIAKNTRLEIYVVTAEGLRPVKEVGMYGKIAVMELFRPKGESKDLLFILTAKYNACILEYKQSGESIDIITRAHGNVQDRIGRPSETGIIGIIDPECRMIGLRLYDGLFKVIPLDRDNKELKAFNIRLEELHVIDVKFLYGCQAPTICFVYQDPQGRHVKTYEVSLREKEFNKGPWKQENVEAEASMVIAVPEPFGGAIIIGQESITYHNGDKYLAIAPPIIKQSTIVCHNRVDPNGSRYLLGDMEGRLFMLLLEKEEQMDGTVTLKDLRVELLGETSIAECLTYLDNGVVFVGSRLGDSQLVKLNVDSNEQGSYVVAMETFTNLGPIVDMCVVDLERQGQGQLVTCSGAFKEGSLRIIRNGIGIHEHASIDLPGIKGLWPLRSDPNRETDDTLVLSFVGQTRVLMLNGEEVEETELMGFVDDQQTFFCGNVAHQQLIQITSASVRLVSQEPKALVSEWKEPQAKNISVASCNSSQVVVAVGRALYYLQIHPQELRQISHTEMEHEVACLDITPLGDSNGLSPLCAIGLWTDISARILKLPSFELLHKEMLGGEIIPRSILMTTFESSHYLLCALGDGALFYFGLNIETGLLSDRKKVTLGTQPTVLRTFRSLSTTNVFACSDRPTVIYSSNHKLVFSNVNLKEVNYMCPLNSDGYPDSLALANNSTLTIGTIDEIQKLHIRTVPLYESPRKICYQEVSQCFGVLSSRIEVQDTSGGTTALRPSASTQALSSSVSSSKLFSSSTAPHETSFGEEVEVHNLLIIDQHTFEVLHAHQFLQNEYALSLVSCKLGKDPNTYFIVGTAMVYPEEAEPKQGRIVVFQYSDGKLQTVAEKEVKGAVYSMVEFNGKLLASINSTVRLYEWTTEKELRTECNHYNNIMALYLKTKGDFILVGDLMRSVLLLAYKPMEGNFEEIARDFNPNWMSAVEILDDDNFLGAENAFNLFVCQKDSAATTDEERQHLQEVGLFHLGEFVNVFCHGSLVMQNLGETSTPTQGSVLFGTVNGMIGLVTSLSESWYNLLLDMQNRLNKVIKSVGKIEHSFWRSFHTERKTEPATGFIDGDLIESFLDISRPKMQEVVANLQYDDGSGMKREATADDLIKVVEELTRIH
Description: In a second assay, DF15 cell lines expressing ePL-tagged target protein substrates were used as a model system to monitor protein degradation at 0.75, 1, 1.5, 3, 4, and 24 hours over a concentration range from 1 pM to 10 μM. The proteins evaluated were Ikaros (FIG. 17), Aiolos, and ZFP91. Compound 1 and Compound 2 were both able to degrade the substrate proteins at all time points (Table 9). In a further assay, additional time points were included to monitor the effect of treatment with Compound 1 and Compound 2.
The depth of substrate protein degradation described by the Y-constant was also measured in this assay against a negative control luciferase inhibitor (CC1071297, Y-constant=0).

Farage CRBN^-/- cells = assay: Cell proliferation in CRBN^-/- (knock out) cells, 5 days; conditions: 120 h
Source text: (§3) The activated B-cell (ABC) and MYC/BCL2 double expressor cell lines SU-DHL-2 and RIVA, the germinal center B-cell (GCB) and MYC/BCL2 double hit cell lines (and expressing BCL6) Karpas-422, SU-DHL-10, WSU-DLCL2, and the primary mediastinal B-cell lymphoma (PMBL) cell line Farage were infected with a CAS9 expressing lentivirus construct to generate the control CAS9 expressing cells. The Cas9 cells had wild type cereblon expression (CRBN^WT).
(§4) To generate the cereblon knock out cells (CRBN^−/−), the individual control CAS9 cells were infected with a construct expressing a subgenomic single guide RNA (sgRNA). Western blot analysis confirmed the absence of cereblon protein in the CRBN^−/− cells, relative to the levels of the housekeeping protein β-tubulin. The CRBN^WT and CRBN^−/− cells were treated with increasing concentrations of Compound 1 for five days.

[1] = system: Karpas-422 CRBN^-/- cells; assay: as above; conditions: Homo sapiens, 120 h
Source text: as §3, §4

WSU-DLCL2 CRBN^-/- cells = assay: as above; conditions: Homo sapiens, WSUDLCL2, 120 h
Source text: as §3, §4

RIVA CRBN^-/- cells = assay: as above; conditions: 120 h
Source text: as §3, §4

[2] = TMD8, 100 nM, 24-hour timepoint

**Q.** What does the source list for `O=C1CC[C@H](N2C(=O)c3cccc(NCc4ccc(CN5CC(N6CCOCC6)C5)cc4F)c3C2=O)C(=O)N1` [Compound 1, (S)-2-(2,6-dioxopiperidin-3-yl)-4-((2-fluoro-4-((3-morpholinoazetidin-1-yl)methyl)benzyl)amino)isoindoline-1,3-dione]?
**A.** genes associated with cell cycle and transcription (11 DLBCL cell lines): global down-regulation; genes associated with interferon signaling, cytokine/chemokine signaling, apoptosis, cell adhesion, cell-cell junction, GPCRs, extracellular matrix (11 DLBCL cell lines): up-regulation; Ikaros, Aiolos, and ZFP91 protein expression (Karpas-422 cells; Karpas-422, 10 and 100 nM, entire course of treatment): complete suppression; MYC reduction (Karpas-422 cells; Karpas-422, after 72 hours): 50%; BCL6 reduction (TMD8 cells; [2]): 65%; IRF4 reduction (TMD8 cells; [2]): 90%; MYC reduction (TMD8 cells; [2]): 75%; Ikaros, Aiolos, and ZFP91 protein expression (TMD8 cells; TMD8, 10 and 100 nM, entire course of treatment): complete suppression; Aiolos Y-constant (Aiolos; 0.75 hours): 46; DC50 (Aiolos; 0.75 hours): 0.73 nM; Aiolos Y-constant (Aiolos; 1 hour): 29; DC50 (Aiolos; 1 hour): 0.94 nM; Aiolos Y-constant (Aiolos; 1.5 hours): 11; DC50 (Aiolos; 1.5 hours): 0.72 nM; Aiolos Y-constant (Aiolos; 3 hours): 4.8; DC50 (Aiolos; 3 hours): 0.6 nM; Aiolos Y-constant (Aiolos; 4 hours): 3.9; DC50 (Aiolos; 4 hours): 0.56 nM; Aiolos Y-constant (Aiolos; 24 hours): 4.0; DC50 (Aiolos; 24 hours): 0.52 nM; IC50 (Farage CRBN^-/- cells): > 10000 nM; IC50 [1]: > 10000 nM; IC50 (WSU-DLCL2 CRBN^-/- cells): > 10000 nM; IC50 (RIVA CRBN^-/- cells): > 10000 nM
